The values that follow are results of earlier work, collected in patent publication US6569857B1, “Dietary supplement” (Drugtech Corporation, priority 1999, dated 2003).

The test system of data set [1] is malondialdehyde concentrations. Conditions: oral vitamin E, male infertility patients; high levels are indicia of decreased sperm motility.
Data set [2] concerns spermatozoal zona binding. Conditions: oral dosing over a three month period, male infertility.

Take vitamin E: the malondialdehyde concentrations entry in data set [1] is reported as “significantly decreased”. In addition, the “increase in spermatozoal zona binding” value in data set [2] is reported as 50%.
